# The source made the active and inactive calls.
# Tests used:
# [1] = Luminescent dose response cell-based high throughput screening assay for inhibitors of the Janus kinase 2 mutant JAK2V617F. [Related pubchem assays: 1446 (Primary screen.), 1521 (Confirmation assay.), 1486 (Counter screen.)]; assay type: functional
# [2] = THP-1 cell cytotoxicity, dose response, cytotoxicity control for non-replicating M. tuberculosis project (AID 489025); assay type: functional
# [3] = HepG2 cell cytotoxicity, dose response, cytotoxicity control for non-replicating M. tuberculosis project (AID 489018); assay type: functional; settings: Mycobacterium tuberculosis
# [4] = Vero E6 cell cytotoxicity, dose response, cytotoxicity control for non-replicating M. tuberculosis project, secondary assay (AID 492998); assay type: functional, VeroE6; settings: Vero C1008
# cells = assay type: functional
# Paired box protein Pax-8 = Paired box protein Pax-8 (Homo sapiens, UniProt Q06710); experiment: PAX8 transcriptional activity inhibition in RMG-I – RMG-I cells, luciferase, cherry-pick, dose response (AID 687027); assay type: functional, cell-based;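 also: luciferase reporter driven by Pax8 target thyroperoxidase promoter measured by SteadyGlo luminescence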
# Sequence of Paired box protein Pax-8 (Q06710 whole entry): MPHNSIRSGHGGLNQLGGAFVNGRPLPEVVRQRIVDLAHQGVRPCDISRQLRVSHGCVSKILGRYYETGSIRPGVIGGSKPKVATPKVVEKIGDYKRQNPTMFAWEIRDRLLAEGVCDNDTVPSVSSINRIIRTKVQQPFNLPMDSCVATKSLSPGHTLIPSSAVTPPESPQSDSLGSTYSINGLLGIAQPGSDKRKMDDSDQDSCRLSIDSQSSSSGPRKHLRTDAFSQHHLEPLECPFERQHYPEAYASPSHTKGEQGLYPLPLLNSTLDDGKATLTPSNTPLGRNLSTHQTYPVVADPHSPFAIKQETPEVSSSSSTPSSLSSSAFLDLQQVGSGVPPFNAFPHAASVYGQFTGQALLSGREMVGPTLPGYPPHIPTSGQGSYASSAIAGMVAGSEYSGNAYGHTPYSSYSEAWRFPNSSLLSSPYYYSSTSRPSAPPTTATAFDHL
# [5] = molecular target: Diphosphomevalonate decarboxylase (Streptococcus pneumoniae serotype 2 (strain D39 / NCTC 7466), UniProt Q9FD53); experiment: diphosphomevalonate decarboxylase inhibitor confirmation – biochemical, cuvette format, coupled NADH fluorescence (AID 1028); assay type: functional
# Sequence of Diphosphomevalonate decarboxylase (Q9FD53 whole entry): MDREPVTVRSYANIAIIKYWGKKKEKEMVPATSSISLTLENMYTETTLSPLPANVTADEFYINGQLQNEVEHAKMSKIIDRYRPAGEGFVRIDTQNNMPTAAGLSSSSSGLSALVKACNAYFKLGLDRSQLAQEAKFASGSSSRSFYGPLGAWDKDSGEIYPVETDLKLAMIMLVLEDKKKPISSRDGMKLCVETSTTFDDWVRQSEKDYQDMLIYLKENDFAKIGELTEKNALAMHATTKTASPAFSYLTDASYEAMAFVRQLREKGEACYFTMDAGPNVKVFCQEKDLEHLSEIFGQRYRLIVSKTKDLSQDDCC
# [6] = system: Streptococcus sp. 'group A'; experiment: Streptococcus pyogenes SK(-)GAS viability under kanamycin – luminescence, BacTiterGlo, confirmation, counter-screen for streptokinase expression inhibitor project, dose response (AID 1900); assay type: functional, organism-based
# [7] = molecular target: Voltage-gated inwardly rectifying potassium channel KCNH2 (Homo sapiens, UniProt Q12809); experiment: concentration-dependent hERG rescue from blockers – cell-based, thallium flux, dose response (AID 2121); assay type: ADME
# Sequence of Voltage-gated inwardly rectifying potassium channel KCNH2 (Q12809 whole entry): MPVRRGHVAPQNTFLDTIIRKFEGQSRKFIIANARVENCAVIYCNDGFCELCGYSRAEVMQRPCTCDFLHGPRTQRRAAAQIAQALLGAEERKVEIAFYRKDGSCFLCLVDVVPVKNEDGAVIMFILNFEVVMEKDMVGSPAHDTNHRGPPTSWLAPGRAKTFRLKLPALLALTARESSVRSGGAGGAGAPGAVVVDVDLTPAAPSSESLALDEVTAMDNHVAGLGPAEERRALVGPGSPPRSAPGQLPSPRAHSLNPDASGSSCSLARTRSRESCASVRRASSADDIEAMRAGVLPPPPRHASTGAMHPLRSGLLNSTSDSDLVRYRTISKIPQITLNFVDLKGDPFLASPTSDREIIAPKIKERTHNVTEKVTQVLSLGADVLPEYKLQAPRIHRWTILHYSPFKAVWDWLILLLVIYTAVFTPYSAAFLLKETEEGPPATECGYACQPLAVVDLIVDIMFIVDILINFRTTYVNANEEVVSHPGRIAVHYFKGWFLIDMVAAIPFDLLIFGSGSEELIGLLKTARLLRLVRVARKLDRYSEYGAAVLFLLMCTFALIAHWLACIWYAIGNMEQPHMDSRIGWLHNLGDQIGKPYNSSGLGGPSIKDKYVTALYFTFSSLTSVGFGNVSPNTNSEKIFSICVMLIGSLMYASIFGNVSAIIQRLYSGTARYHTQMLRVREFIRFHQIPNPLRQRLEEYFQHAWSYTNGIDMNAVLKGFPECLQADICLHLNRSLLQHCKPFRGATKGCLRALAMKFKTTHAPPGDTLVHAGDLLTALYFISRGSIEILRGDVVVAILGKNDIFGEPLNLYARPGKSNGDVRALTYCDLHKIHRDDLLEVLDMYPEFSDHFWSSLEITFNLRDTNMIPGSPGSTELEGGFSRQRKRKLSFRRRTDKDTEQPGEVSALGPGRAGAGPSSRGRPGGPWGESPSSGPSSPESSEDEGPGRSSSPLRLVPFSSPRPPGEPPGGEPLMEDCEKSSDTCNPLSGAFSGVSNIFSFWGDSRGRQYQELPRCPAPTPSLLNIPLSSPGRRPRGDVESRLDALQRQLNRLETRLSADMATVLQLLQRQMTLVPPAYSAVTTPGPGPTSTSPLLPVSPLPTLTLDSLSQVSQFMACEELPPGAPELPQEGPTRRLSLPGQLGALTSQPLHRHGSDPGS
# Streptococcus = experiment: GAS UMAA2166 growth inhibition – luminescence, BacTiterGlo, counter-screen for streptokinase expression inhibitor project, dose response (AID 1915); assay type: functional, organism-based;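 also: potency for reduction of bacterial viability or growth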
# Leucine aminopeptidase = molecular target: T1, Leucine aminopeptidase (Plasmodium falciparum 3D7, UniProt Q8IL11); experiment: P. falciparum M17LAP inhibitors, primary screen, biochemical, fluorogenic H-Leu-NHMec substrate, 1536-well (AID 1619); assay type: functional
# T1 sequence (Q8IL11 whole entry): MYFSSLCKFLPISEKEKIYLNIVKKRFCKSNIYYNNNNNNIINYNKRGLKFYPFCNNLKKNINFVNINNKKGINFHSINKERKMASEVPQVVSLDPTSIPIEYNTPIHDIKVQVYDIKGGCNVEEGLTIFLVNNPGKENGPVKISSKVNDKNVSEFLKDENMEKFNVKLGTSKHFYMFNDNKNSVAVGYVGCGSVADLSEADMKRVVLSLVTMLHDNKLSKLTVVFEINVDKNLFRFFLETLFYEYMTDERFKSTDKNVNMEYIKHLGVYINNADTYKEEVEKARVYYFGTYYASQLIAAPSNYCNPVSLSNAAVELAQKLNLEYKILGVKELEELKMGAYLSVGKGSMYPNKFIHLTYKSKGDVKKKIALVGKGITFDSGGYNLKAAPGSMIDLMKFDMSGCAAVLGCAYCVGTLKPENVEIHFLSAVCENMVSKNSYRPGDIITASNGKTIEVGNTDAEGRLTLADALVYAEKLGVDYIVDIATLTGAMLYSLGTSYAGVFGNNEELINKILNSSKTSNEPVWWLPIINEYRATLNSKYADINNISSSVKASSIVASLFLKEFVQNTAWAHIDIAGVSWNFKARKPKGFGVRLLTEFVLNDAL
# [8] = molecular target: T2, RNA-binding protein pos-1 (Caenorhabditis elegans, UniProt G5EF15); experiment: disruptors of C. elegans POS-1 RNA interaction – biochemical, fluorescence polarization, dose response (AID 1964);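 also: purified POS-1 fused to maltose binding protein made in E. coli; potency of compounds blocking POS-1 binding to fluorescent RNA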
# T2 sequence (G5EF15 whole entry): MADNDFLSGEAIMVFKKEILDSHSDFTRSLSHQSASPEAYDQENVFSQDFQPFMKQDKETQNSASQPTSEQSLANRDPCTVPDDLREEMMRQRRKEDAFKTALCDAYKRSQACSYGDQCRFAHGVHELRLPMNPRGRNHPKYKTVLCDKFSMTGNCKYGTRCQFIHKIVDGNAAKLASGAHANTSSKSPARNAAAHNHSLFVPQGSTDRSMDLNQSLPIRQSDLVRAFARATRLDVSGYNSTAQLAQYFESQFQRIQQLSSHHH
# [9] = molecular target: T3, Zinc finger protein mex-5 (Caenorhabditis elegans, UniProt Q9XUB2); experiment: potency of MEX-5 RNA-binding blockers – biochemical, C. elegans, fluorescence polarization, dose response (AID 1960)
# T3 sequence (Q9XUB2 whole entry): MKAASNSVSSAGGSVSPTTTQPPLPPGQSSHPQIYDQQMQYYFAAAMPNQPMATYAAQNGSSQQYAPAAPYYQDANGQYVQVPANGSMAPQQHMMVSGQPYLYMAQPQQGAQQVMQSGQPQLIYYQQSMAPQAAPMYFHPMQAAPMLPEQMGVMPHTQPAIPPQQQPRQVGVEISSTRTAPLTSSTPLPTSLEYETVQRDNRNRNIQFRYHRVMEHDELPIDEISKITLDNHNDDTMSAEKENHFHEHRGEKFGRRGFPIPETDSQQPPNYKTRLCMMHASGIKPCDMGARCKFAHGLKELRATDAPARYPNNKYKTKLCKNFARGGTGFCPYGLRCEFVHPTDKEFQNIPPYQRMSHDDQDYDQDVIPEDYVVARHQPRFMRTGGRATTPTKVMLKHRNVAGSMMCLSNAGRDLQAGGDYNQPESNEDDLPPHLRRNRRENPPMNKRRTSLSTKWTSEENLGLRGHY
# [10] = antibacterial activity against E. coli NEB5alpha – luminescence, counter-screen for MEX-5/POS-1 RNA-binding inhibitor project, dose response (AID 1959); assay type: functional
# Nonstructural protein 1 = Nonstructural protein 1 (Influenza A virus, UniProt Q194T2); assay type: functional, Influenza A virus (A/California/07/2009(H1N1))
# Sequence of Nonstructural protein 1 (Q194T2 whole entry): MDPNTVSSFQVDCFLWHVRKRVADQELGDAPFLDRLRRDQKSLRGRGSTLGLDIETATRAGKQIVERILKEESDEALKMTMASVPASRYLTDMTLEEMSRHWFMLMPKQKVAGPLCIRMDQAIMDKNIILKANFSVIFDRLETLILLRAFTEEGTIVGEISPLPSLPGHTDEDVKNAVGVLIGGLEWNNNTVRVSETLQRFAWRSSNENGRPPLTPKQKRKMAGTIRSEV
# [11] = viability loss in HeLa cells – cytotoxicity control for MgcRacGAP inhibitor project, dose response (AID 624300); assay type: functional
# [12] = molecular target: T4, Rac GTPase-activating protein 1 (Homo sapiens, UniProt Q9H0H5); experiment: blockers of MgcRacGAP-driven Rac1 GTP hydrolysis – biochemical, ADP Hunter fluorescence, primary and confirmatory, confirmation (AID 624330); assay type: functional
# T4 sequence (Q9H0H5 whole entry): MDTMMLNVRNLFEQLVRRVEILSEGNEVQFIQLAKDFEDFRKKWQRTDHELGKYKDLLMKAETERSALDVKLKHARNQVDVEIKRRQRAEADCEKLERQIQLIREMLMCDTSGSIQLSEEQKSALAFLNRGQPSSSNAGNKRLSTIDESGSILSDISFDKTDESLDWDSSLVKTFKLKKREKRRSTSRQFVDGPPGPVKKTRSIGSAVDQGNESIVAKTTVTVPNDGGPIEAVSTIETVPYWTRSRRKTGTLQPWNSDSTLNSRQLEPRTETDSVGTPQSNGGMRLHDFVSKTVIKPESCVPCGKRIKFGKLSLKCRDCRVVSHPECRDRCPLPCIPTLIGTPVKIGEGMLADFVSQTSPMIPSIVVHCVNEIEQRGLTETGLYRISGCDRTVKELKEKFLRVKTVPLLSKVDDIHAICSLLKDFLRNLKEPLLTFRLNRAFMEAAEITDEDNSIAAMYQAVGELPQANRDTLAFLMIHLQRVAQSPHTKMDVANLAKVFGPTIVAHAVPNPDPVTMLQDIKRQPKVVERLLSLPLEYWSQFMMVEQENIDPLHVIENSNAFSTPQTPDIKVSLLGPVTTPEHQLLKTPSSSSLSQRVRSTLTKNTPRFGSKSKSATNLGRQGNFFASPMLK
# [13] = HGIII-sPLA2 enzyme inhibition potency – biochemical, QFRET, IC50, dose response (AID 743457);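 also: green fluorescence rise as the enzyme cleaves BODIPY PC-A2 in liposomes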
# Bcl-2-related protein A1 [14] = molecular target: T5, Bcl-2-related protein A1 (Mus musculus, UniProt Q07440); experiment: small-molecule antagonists of Bfl-1/BH3 interaction – biochemical, TR-FRET, mouse Bfl-1, confirmation (AID 621);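 also: TR-FRET binding of GST-Bfl-1 to FITC-labelled Bid peptide via terbium antibody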
# T5 sequence (Q07440 whole entry): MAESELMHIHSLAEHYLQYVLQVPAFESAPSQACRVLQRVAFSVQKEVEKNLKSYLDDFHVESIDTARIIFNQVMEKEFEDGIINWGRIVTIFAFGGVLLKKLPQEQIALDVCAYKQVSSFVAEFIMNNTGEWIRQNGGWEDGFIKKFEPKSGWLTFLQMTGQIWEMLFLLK
# Bcl-2-related protein A1 [15] = molecular target: T5, Bcl-2-related protein A1; experiment: Bfl-1 binding inhibitors, SAR follow-up, biochemical, fluorescence polarization (AID 1070)
# Protein skinhead-1 = molecular target: T6, Protein skinhead-1 (Caenorhabditis elegans, UniProt P34707); assay type: functional
# T6 sequence (P34707 whole entry): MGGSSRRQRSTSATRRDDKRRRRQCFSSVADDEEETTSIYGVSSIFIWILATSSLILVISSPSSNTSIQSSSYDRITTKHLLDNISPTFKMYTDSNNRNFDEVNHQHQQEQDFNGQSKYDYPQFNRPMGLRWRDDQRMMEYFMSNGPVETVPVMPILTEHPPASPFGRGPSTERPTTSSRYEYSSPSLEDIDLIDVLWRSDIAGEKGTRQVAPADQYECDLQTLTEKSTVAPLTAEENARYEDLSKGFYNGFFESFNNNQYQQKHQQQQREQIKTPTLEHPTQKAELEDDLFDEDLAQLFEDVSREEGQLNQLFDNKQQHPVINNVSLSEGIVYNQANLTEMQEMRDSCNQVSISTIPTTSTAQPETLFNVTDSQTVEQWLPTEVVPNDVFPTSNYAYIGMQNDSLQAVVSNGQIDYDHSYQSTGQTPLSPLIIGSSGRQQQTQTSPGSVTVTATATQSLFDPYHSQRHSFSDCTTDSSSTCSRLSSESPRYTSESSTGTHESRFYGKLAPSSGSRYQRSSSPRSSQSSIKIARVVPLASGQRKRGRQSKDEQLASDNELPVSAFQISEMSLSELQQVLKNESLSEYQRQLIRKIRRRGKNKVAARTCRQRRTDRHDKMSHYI
structure (smiles),measurement,setting,value
CCOc1ccc(C(=O)C(CN2CCOCC2)c2ccccc2)cc1 (stereo unspecified),IC50,[1],0.73 µM (active)
same,CC50,[2],5.48 µM (active)
same,CC50,[3],16.1 µM (active)
same,CC50,[4],8.04 µM (active)
same,IC50,cells,10.3 µM (active)
same,AC50,Paired box protein Pax-8,1.96 µM (active)
O=C(c1ccc(-n2sc3ccccc3c2=O)cc1)N1CCCC1,IC50,[5],8.66 µM (active)
CCOc1ccc2nc(N3C(=O)/C(=C/c4ccc(Cl)cc4)NC3=S)sc2c1,EC50,[6],1.8 µM (active)
same,EC50,[7],1.24 µM (active)
same,EC50,Streptococcus,0.855 µM (active)
CC[n+]1c(/C=C/c2ccc(N(C)C)cc2)ccc2ccccc21,IC50,Leucine aminopeptidase,110 µM (active)
same,EC50,[8],> 300 µM (not active)
same,EC50,[9],> 300 µM (not active)
same,EC50,[10],37.8 µM (active)
same,IC50,Nonstructural protein 1,18.9 µM (active)
same,CC50,[11],39.7 µM (active)
same,IC50,[12],46.6 µM (active)
same,IC50,[13],34 µM (inactive)
Fc1ccc(-n2nnc(-c3cccnc3)n2)cc1,IC50,Bcl-2-related protein A1 [14],> 100 µM (not active)
same,IC50,Bcl-2-related protein A1 [15],> 100 µM (not active)
same,IC50,Protein skinhead-1,17.4 µM (active)

# Reference: ChEMBL document CHEMBL1201862, “PubChem BioAssay data set” (2004)
